In patent publication US4916149A, “Diuretic and saluretic 4-chloro-3-sulfamoylbenzoic acid hydrazides” (Chinoin Gyogyszer es Vegyeszeti Termekek Gyara Rt., priority 1987, dated 1990):
Where “and” joins values, the source holds several entries; their conditions need not be identical. Equal values may be shown once. Read-outs that look alike come from different tables or passages of the source.

What was measured:
[1] = Antihypertensive activity in spontaneously hypertensive (SH) rats, systolic blood pressure; format: in vivo, spontaneously hypertensive (SH) male Okamoto rats
Method: […] A hypotension of 21.1% was induced by the compound of Example 1 by 12 hours after administration.
These investigations were carried but in spontaneously hypertensive (SH) male Okamoto rats. At least one week before starting the experiment, the animals had individually been maintained in cages and received water and semisynthetic rat food ad libitum. In the same time of each day, the blood pressure of each animal was measured and gastric tubing was carried out while immobilizing the animals. Animals with a blood pressure below 170 Hgmm were excluded from the experiment. Based on the daily determined blood pressure values, the animals were divided to experimental groups having a nearly equal average blood pressure and deviation.
At the beginning of the experiment, the animals were given 0.2 ml/100 g of a solution containing the test compound, and 1 ml/100 g of Furosemide solution, respectively. Animal groups treated with physiological saline solution and solvent, respectively were also investigated in each experiment.
Before measuring the blood pressure, the animals were put into a light-insulated sound-proof chamber then immobilized. An inflatable rubber cuff was placed on their tail root (onto the same site in each case) which was connected with a manometer.
The material and diameter of the tail cuff was standardized. The measurement was carried out according to the Riva-Rocci principle. For determining the systolic blood pressure, the palpitation method was used. The heart rate was evaluated by a piezoelektric crystal put onto the rubber ring. The blood pressure measurement of each animal was started by 2 minutes following the immobilization, repeated in every 30 seconds and usually, the values several times repeatedly observed were accepted.
Effect of a single oral dose of the compound of Example 1 or Furosemide, respectively on the systolic blood pressure of SH rats

[2] = Glucose tolerance, serum uric acid and cholesterol; format: in vivo
[3] = Saluretic/diuretic screening in rats (method of Lipschitz as modified by Kagawa and Kahn); format: in vivo, male LATI CFY rats; conditions: for response vs control in vivo at 5 mg/kg: Rattus norvegicus; for response vs control in vivo at 5 mg/kg / Na/K ratio of the urine discharged: single oral dose (5 mg/kg oral screen dose), 24 hours; for Na/K ratio of the urine discharged: control 3.0
Method: The compounds of the present invention were compared with Dihydrochlorothiazide and Furosemide in rats by administration of a 5 mg/kg oral screen dose.
The screening tests were carried out on male LATI CFY rats having an average body-weight of 240 g. The animals were kept on standard rat food and starved for 16 hours before the experiment but they received water ad libitum. For evaluation of the diuretic effect, the method of Lipschitz as modified by Kagawa and Kahn [Arch. Int. Pharmacodyn. 137, 241 (1962)] was used.
Effect of a single oral dose of the compounds according to the invention on water, sodium and potassium diuresis during 24 hours as percentage of the simultaneously measured control values as well as their effect on the Na/K ratio of the urine discharged

[4] = Saluretic effect in dogs (urine volume, Na and K, 0-7 and 7-24 hours); format: in vivo, perineotomized female dogs
Method: The compound described in Example 1 was studied also on perineotomized female dogs. […] For adaptation, starting from the 4th week following the operation, the urinary bladder of the animals was evacuated by a catheter or treated with saline via a gastric tube. During the experiment, the dogs were kept on a standard food and they received water ad libitum. On the days of the experiements, the dogs were fasted and received only 20 ml/kg of water. Sodium in an 7.7 mmol/kg and potassium in an amount of 6.02 mmol/kg were introduced with the food.
On the day of the experiment, the bladder of the animals was evacuated and a blood sample was taken from the leg vein, then a solution of the diuretic and solvent to the controls, respectively were administered in a dose of 10 ml/kg via a gastric tube. The animals were placed separately in metabolic cages. After 7 and 24 hours, respectively the bladder of the animals was catheterized and the urine was collected by washing the metabolic cage. After 24 hours following the catheterization, a blood sample was taken again.
In addition to the discharged volume, the Na^+ and K^+ content of the urine as well as the glucose and cholesterol level of the serum were determined.

[5] = single oral dose 5 mg/kg, before treatment 216 mmHg
[6] = read-out: K (potassium) diuresis, percentage of the simultaneously measured control values
[7] = read-out: Na (sodium) diuresis, percentage of the simultaneously measured control values
[8] = read-out: Water diuresis, percentage of the simultaneously measured control values
[9] = single oral dose 100 mg/kg, before treatment 201 mmHg

| SMILES | response vs control in vivo at 5 mg/kg [3, 6] [%] | response vs control in vivo at 5 mg/kg [3, 7] [%] | response vs control in vivo at 5 mg/kg [3, 8] [%] | Na/K ratio of the urine discharged [3] | further results |
| --- | --- | --- | --- | --- | --- |
| NS(=O)(=O)c1cc(C(=O)Nn2c(=S)[nH]c3cc(C(=O)O)ccc32)ccc1Cl.O [Example 1, 1-(4'-chloro-3'-sulfamoylbenzoyl)amino-5-carboxybenzimidazole-2-thione monohydrate] | 122 | 152 | 148 | 4.6 | Hypotension 6 hours following treatment, % ([1]; single oral dose 5 mg/kg): 14.3%; Hypotension 6 hours following treatment [1, 5]: 31 mmHg; Hypotension 12 hours following treatment [1, 5]: 45 mmHg; Hypotension 12 hours following treatment, % ([1]; single oral dose 5 mg/kg, monohydrate, 5 mg/kg): 21.1% and 20.1%; Hypotension 24 hours following treatment, % ([1]; single oral dose 5 mg/kg): 13.8%; Hypotension 24 hours following treatment [1, 5]: 30 mmHg; deterioration of the glucose tolerance ([2]; even in a high dose (30 mg/kg)): does not induce any deterioration; effect on the cholesterol level of the serum ([2]; in vivo): no significant effect; effect on the uric acid concentration of the serum ([2]; in vivo): no significant effect; discharged urine volume as well as ion diuresis ([3]; 5 mg/kg oral, compared with Dihydrochlorothiazide and Furosemide): particularly advantageous; Na/K index ([3]; 5 mg/kg oral, result in words): highly preferable |
| NS(=O)(=O)c1cc(C(=O)Nn2c(=O)[nH]c3cc(C(=O)O)ccc32)ccc1Cl [Example 7, 1-(4'-chloro-3'-sulfamoylbenzoyl)-amino-5-carboxybenzimidazolone] | 110 | 133 | 129 | 3.7 |  |
| CSc1nc2cc(C(=O)O)ccc2n1NC(=O)c1ccc(Cl)c(S(N)(=O)=O)c1 [Example 9, 1-(4'-chloro-3'-sulfamoylbenzoyl)-amino-5-carboxy-2-methylthiobenzimidazole] | 95 | 105 | 99 | 3.4 |  |
| Cc1nc2cc(C(=O)O)ccc2n1NC(=O)c1ccc(Cl)c(S(N)(=O)=O)c1 [Example 16, 1-(4'-chloro-3'-sulfamoylbenzoyl)amino-5-carboxy-2-methylbenzimidazole] | 109 | 117 | 111 | 3.3 |  |
| NS(=O)(=O)c1cc(C(=O)Nn2cnc3cc(C(=O)O)ccc32)ccc1Cl [Example 19, 1-(4'-chloro-3'-sulfamoylbenzoyl)amino-5-carboxybenzimidazole] | 120 | 121 | 117 | 3.1 |  |
| NS(=O)(=O)c1cc(C(=O)Nn2cnc3ccccc32)ccc1Cl [Example 22, 1-(4'-chloro-3'-sulfamoylbenzoyl)-aminobenzimidazole] | 103 | 99 | 107 | 3.7 |  |
| Cc1nc2ccccc2n1NC(=O)c1ccc(Cl)c(S(N)(=O)=O)c1 [Example 23, 1-(4'-chloro-3'-sulfamoylbenzoyl)amino-2-methylbenzimidazole] | 102 | 105 | 98 | 4.0 |  |
| NS(=O)(=O)c1ccc2c(c1)[nH]c(=S)n2NC(=O)c1ccc(Cl)c(S(N)(=O)=O)c1 [Example 24, 1-(4'-chloro-3'-sulfamoylbenzoyl)amino-5-sulfamoylbenzimidazole-2-thione] | 104 | 104 | 108 | 3.9 |  |
| NS(=O)(=O)c1cc(C(=O)Nn2cnc3cc(C(F)(F)F)ccc32)ccc1Cl [Example 26, 1-(4'-chloro-3'-sulfamoylbenzoyl)amino-5-trifluoromethylbenzimidazole] | 106 | 108 | 107 | 4.0 |  |
| Cc1nc2cc(C(F)(F)F)ccc2n1NC(=O)c1ccc(Cl)c(S(N)(=O)=O)c1 [Example 27, 1-(4'-chloro-3'-sulfamoylbenzoyl)amino-2-methyl-5-trifluoromethylbenzimidazole] | 85 | 94 | 95 | 4.3 |  |
| NS(=O)(=O)c1cc(C(=O)Nn2c(-c3ccccc3)nc3cc(C(F)(F)F)ccc32)ccc1Cl [Example 29, 1-(4'-chloro-3'-sulfamoylbenzoyl)amino-2-phenyl-5-trifluoromethylbenzimidazole] | 105 | 101 | 97 | 2.9 |  |
| CSc1nc2cc(C(F)(F)F)ccc2n1NC(=O)c1ccc(Cl)c(S(N)(=O)=O)c1 [Example 30, 1-(4'-chloro-3'-sulfamoylbenzoyl)-amino-2-methylthio-5-trifluoromethylbenzimidazole] | 108 | 106 | 114 | 3.0 |  |
| COC(=O)c1ccc2c(c1)nc(C)n2NC(=O)c1ccc(Cl)c(S(N)(=O)=O)c1 [Example 32, 1-(4'-chloro-3'-sulfamoylbenzoyl)amino-5-methoxycarbonyl-2-methylbenzimidazole] | 115 | 121 | 117 | 3.2 |  |
| NS(=O)(=O)c1cc(C(=O)O)c(NCc2ccco2)cc1Cl [Furosemide, reference compound] | 105 | 106 | 107 | 2.7 | Hypotension 6 hours following treatment, % ([1]; single oral dose 100 mg/kg): 25.3%; Hypotension 6 hours following treatment [1, 9]: 51 mmHg; Hypotension 12 hours following treatment, % ([1]; single oral dose 100 mg/kg): 19.4%; Hypotension 12 hours following treatment [1, 9]: 39 mmHg; Hypotension 24 hours following treatment, % ([1]; single oral dose 100 mg/kg): 1.5%; Hypotension 24 hours following treatment [1, 9]: 3 mmHg; diuretic effect in the 7 to 24 hours' period ([4]; 7 to 24 hours' period): low |
| NS(=O)(=O)c1cc2c(cc1Cl)NCNS2(=O)=O [Hypothiazide, reference compound] | 114 | 129 | 124 | 3.5 | diuretic effect in 7 hours' period ([4]; 7 hours' period after administration): low |
